Results reported in the NIST ThermoML archive (doi:10.1016/j.jct.2014.03.026).
± gives the expanded uncertainty stated by the source.

Experiment: Molar enthalpy of transition or fusion
Conditions: Crystal; DSC

Structure (SMILES): O=C1/C(=C/c2ccc(Cl)cc2)CCc2ccccc21
- Molar enthalpy of transition or fusion: 7.33 ± 0.239 kcal/mol
